Ends that are not written are not given here.
Columns and labels:
MCF10A cells = details: 24 h
MCF7 cells = details: 24 h
TamR3 cells = details: 24 h
PBMC = details: 12.5 µM

| Molecule | IC50 (MCF10A cells) [µM] | IC50 (MCF7 cells) [µM] | IC50 (TamR3 cells) [µM] | Average (percentage cell inhibition), Dmastoparan MDA-MB231 12.5uM (MDA-MB-231 cells) [%] | Average (percentage cell inhibition), Mastoparan PBMC (PBMC) [%] |
| --- | --- | --- | --- | --- | --- |
| LLQWLLKRLKAK-NH2 [peptide 11] | 16 | 11.5 | 11.4 |  |  |
| IILKKLLDFILK-NH2 [peptide 29] | 16.8 | 16.4 | 14.6 |  |  |
| CC[C@H](C)[C@H](N)C(=O)N[C@@H](CC(N)=O)C(=O)N[C@@H](CC(C)C)C(=O)N[C@@H](CCCCN)C(=O)N[C@@H](C)C(=O)N[C@@H](CC(C)C)C(=O)N[C@@H](C)C(=O)N[C@@H](C)C(=O)N[C@@H](CC(C)C)C(=O)N[C@@H](C)C(=O)N[C@@H](CCCCN)C(=O)N[C@@H](CCCCN)C(=O)N[C@H](C(=O)N[C@@H](CC(C)C)C(N)=O)[C@@H](C)CC [Mastoparan, reference compound] | 16.9 | 21.8 | 18.4 |  |  |
| TLLTAIVKLFLK-NH2 [peptide 57] | 14.9 | 25 | 18.1 |  |  |
| CC[C@H](C)[C@H](N)C(=O)N[C@@H](CC(N)=O)C(=O)N[C@@H](CC(C)C)C(=O)N[C@@H](CCCCN)C(=O)N[C@@H](C)C(=O)N[C@@H](CC(C)C)C(=O)N[C@@H](C)C(=O)N[C@@H](C)C(=O)N[C@@H](CC(C)C)C(=O)N[C@@H](C)C(=O)N[C@@H](CCCCN)C(=O)N[C@@H](CCCCN)C(=O)N[C@@H](CCC(N)=O)C(=O)N[C@@H](CC(C)C)C(N)=O [Q13] |  |  |  | 9.2166 | -1.132 |
| CC[C@H](C)[C@H](N)C(=O)N[C@@H](CC(N)=O)C(=O)N[C@@H](CC(C)C)C(=O)N[C@@H](CCCCN)C(=O)N[C@@H](C)C(=O)N[C@@H](Cc1c[nH]c2ccccc12)C(=O)N[C@@H](C)C(=O)N[C@@H](C)C(=O)N[C@@H](CC(C)C)C(=O)N[C@@H](C)C(=O)N[C@@H](CCCCN)C(=O)N[C@@H](CCCCN)C(=O)N[C@H](C(=O)N[C@@H](CC(C)C)C(N)=O)[C@@H](C)CC [W6] |  |  |  | 42.8966 | 18.297 |

Source: publication PMC12748989 (Nature Communications, 2025)
